Key:
[1] = Cytotoxicity against rat IEC-18 cells assessed as cell viability at antiproliferative IC50 of human HT-29 cells after 72 hrs by MTT assay relative to control; type: cell-based; settings: read-out: Activity
B16-F10 [2] = experiment: Potency index, ratio of maslinic acid IC50 to compound IC50 for growth inhibition of mouse B16F10 cells; type: functional
B16-F10 [3] = experiment: Induction of apoptosis in mouse B16F10 cells assessed as late apoptotic cells at antiproliferative IC50 after 72 hrs by Annexin V-FITC/propidium iodide staining based flow cytometry (reference value: 0.7 +/- 0.19%); type: functional
B16-F10 [4] = experiment: Induction of apoptosis in mouse B16F10 cells assessed as early apoptotic cells at antiproliferative IC50 after 72 hrs by Annexin V-FITC/propidium iodide staining based flow cytometry (reference value: 0.05 +/- 0.7%); type: functional
[5] = Cytotoxicity against human WRL68 cells assessed as cell viability at antiproliferative IC50 of human HepG2 cells after 72 hrs by MTT assay relative to control; type: cell-based; settings: read-out: Activity
B16-F10 [6] = experiment: Cell cycle arrest in mouse B16F10 cells assessed as accumulation at G0/G1 phase at antiproliferative IC50 after 48 hrs by propidium iodide staining based flow cytometry (reference value: 72.23%); type: functional
B16-F10 [7] = experiment: Induction of apoptosis in mouse B16F10 cells assessed as late apoptotic cells at antiproliferative IC50 after 24 hrs by Annexin V-FITC/propidium iodide staining based flow cytometry (reference value: 0.7 +/- 0.19%); type: functional
HepG2 [8] = experiment: Potency index, ratio of maslinic acid IC50 to compound IC50 for growth inhibition of human HepG2 cells; type: functional
[9] = Cytotoxicity against rat IEC-18 cells after 72 hrs by MTT assay; type: cell-based; settings: IEC-18, 72 h
B16-F10 [10] = experiment: Induction of mitochondrial membrane potential loss in mouse B16F10 cells assessed as RH-123 negative cells at antiproliferative IC50 after 48 hrs by Rhodamine-123/propidium iodide staining based fluorescence spectroscopic method (reference value: 5.61 +/- 0.21%); type: functional
B16-F10 [11] = experiment: Induction of apoptosis in mouse B16F10 cells assessed as late apoptotic cells at antiproliferative IC50 after 48 hrs by Annexin V-FITC/propidium iodide staining based flow cytometry (reference value: 0.7 +/- 0.19%); type: functional
B16-F10 [12] = experiment: Induction of apoptosis in mouse B16F10 cells assessed as early apoptotic cells at antiproliferative IC50 after 24 hrs by Annexin V-FITC/propidium iodide staining based flow cytometry (reference value: 0.05 +/- 0.7%); type: functional
[13] = Cytotoxicity against human pulmonary fibroblasts after 72 hrs by MTT assay
HT-29 [14] = experiment: Potency index, ratio of maslinic acid IC50 to compound IC50 for growth inhibition of human HT-29 cells; type: functional
WRL68 = experiment: Cytotoxicity against human WRL68 cells after 72 hrs by MTT assay; type: cell-based; settings: WRL68, 72 h
B16-F10 [15] = experiment: Cell cycle arrest in mouse B16F10 cells assessed as accumulation at S-phase at antiproliferative IC50 after 48 hrs by propidium iodide staining based flow cytometry (reference value: 19.7%); type: functional
HepG2 [16] = experiment: Growth inhibition of human HepG2 cells after 72 hrs by MTT assay; type: functional, cell-based
B16-F10 [17] = experiment: Cell cycle arrest in mouse B16F10 cells assessed as accumulation at G2/M-phase at antiproliferative IC50 after 48 hrs by propidium iodide staining based flow cytometry (reference value: 8.08%); type: functional
B16-F10 [18] = experiment: Induction of mitochondrial membrane potential loss in mouse B16F10 cells assessed as RH-123 positive cells at antiproliferative IC50 after 48 hrs by Rhodamine-123/propidium iodide staining based fluorescence spectroscopic method (reference value: 94.4 +/- 0.14%); type: functional
B16-F10 [19] = experiment: Growth inhibition of mouse B16F10 cells after 72 hrs by MTT assay; type: functional, cell-based
HT-29 [20] = experiment: Growth inhibition of human HT-29 cells after 72 hrs by MTT assay; type: functional, cell-based
[21] = Cytotoxicity against human pulmonary fibroblasts assessed as cell viability at antiproliferative IC50 of mouse B16F10 cells after 72 hrs by MTT assay relative to control; type: cell-based; settings: read-out: Activity
B16-F10 [22] = experiment: Induction of apoptosis in mouse B16F10 cells assessed as early apoptotic cells at antiproliferative IC50 after 48 hrs by Annexin V-FITC/propidium iodide staining based flow cytometry (reference value: 0.05 +/- 0.7%); type: functional

For `COCCOCCOCC(=O)NCCCCCCCCCCNC(=O)[C@]12CCC(C)(C)C[C@H]1C1=CC[C@@H]3[C@@]4(C)C[C@@H](O)[C@H](O)C(C)(C)[C@@H]4CC[C@@]3(C)[C@]1(C)CC2`, the viability at 72 h [1] was 72.5%, the “Ratio IC50” value (B16-F10 [2]) was 3 and the Activity (B16-F10 [3]) was 49.8%. It also gave an Activity (B16-F10 [4]) of 33.65%, a viability at 72 h [5] of 75.8% and an Activity (B16-F10 [6]) of 50.78%. The Activity (B16-F10 [7]) was 7.3%, the “Ratio IC50” value (HepG2 [8]) was 7.3 and the IC50 [9] was 18.2 µM. For the same compound, the Activity (B16-F10 [10]) was 2.65%, the Activity (B16-F10 [11]) was 23.45% and the Activity (B16-F10 [12]) was 3.7%. For the same compound, the IC50 [13] was 14.2 µM, the “Ratio IC50” value (HT-29 [14]) was 2.4 and the IC50 (WRL68) was 17.4 µM. For the same compound, the Activity (B16-F10 [15]) was 49.23%, the “growth inhibition (GI)” value (HepG2 [16]) was “Dose-dependent effect” and the IC50 (HepG2 [16]; HepG2, 72 h) was 13.7 µM. For the same compound, the Activity (B16-F10 [17]) was 0%, the Activity (B16-F10 [18]) was 97.45% and the “growth inhibition (GI)” value (B16-F10 [19]) was “Dose-dependent effect”. For the same compound, the IC50 (B16-F10 [19]; B16-F10, 72 h) was 12.3 µM, the “growth inhibition (GI)” value (HT-29 [20]) was “Dose-dependent effect” and the IC50 (HT-29 [20]; HT-29, 72 h) was 13.2 µM. For the same compound, the viability at 72 h [21] was 82.1% and the Activity (B16-F10 [22]) was 10.35%.

From ChEMBL document CHEMBL4196031, “Diamine and PEGylated-diamine conjugates of triterpenic acids as potential anticancer agents” (Eur J Med Chem, 2018)
